Laboratory results taken from patent US4374248A, “3,4-Disubstituted-1,2,5-thiadiazole-1-oxide compounds” (Bristol-Myers Company, priority 1981, dated 1983).
Read-outs that look alike come from different tables or passages of the source.

How the values were obtained:
Gastric Acid Output = test: Gastric Antisecretory Activity in the Two Hour Pylorus Ligated (Shay) Rat; format: in vivo, rat (Male Long Evans); conditions: 2 h
Text: Med. Res., 3, 86 (1975). […] One of the standard animal models for determining gastric antisecretory activity of histamine H2 -antagonists is the pylorus ligated rat.
Determination of Gastric Antisecretory Activity in the Two Hour Pylorus Ligated (Shay) Rat
The pyloric ligation procedure in the rat was designed by Shay et al., Gastroenterology, 5, 53 (1945) for the study of perforating gastric ulcers; however, as the method became known, it was also employed as a means of studying rat gastric secretion, Shay et al., Gastroenterology, 26, 906 (1954), Brodie, D, A. Am. J. Dig. Dis., 11, 231 (1966). A modification of this procedure is presently used to evaluate compounds for gastric antisecretory activity.
Male Long Evans rats, 280-300 gm., are used. The animals are placed in individual cages and fasted for 24 hours with free access to water. Under ether anesthesia, the stomach is reached through a midline incision, and a cotton-thread ligature is placed around the pylorus. After wound closure, ether administration is stopped and the test compound or control vehicle is administered either intraperitoneally or subcutaneously in a volume of 1 ml./kg. All compounds are solubilized with one equivalent of HCl and brought to the proper volume with water. The animals are returned to their cages from which the water bottles have been removed and two hours later are sacrificed with ether. The stomach is removed and the two hour gastric collection is drained into a graduated test tube for volume determination. Titratable acidity is measured by titrating a one ml. sample to pH 7.0 with 0.02 NaOH, using an Autoburet and electrometric pH meter (Radiometer). Titratable acid output is calculated in microequivalents by multiplying the volume in milliliters by the acid concentration in milliequivalents per liter. The percent inhibition of acid output is calculated as follows [formula] At least five rats are used at each dosage level, and a minimum of three dosage levels are utilized for determination of a dose response curve. Initially this test was conducted utilizing intraperitoneal injection of the test compound or control vehicle. […] The route of administration of each compound is noted in Table 1.

gastric secretion = conditions: cited from earlier work
[1] = in vivo; cited from earlier work
H2 -receptor = conditions: cited from earlier work
[2] = clinical; cited from earlier work
peptic ulcer disease = conditions: Gray et al., Lancet, 1, 8001 (1977); cited from earlier work
[3] = sc, s.c. administration, two hour gastric acid output, 95% confidence limits in parenthesis, read-out: ED50

CN(C)Cc1ccc(CSCCNC2=NS(=O)(=O)N=C2N2CCCCC2)o1 [Example 102, 3-{2-[(5-Dimethylaminomethyl-2-furyl)methylthio]ethylamino}-4-piperidino-1,2,5-thiadiazole 1,1-dioxide]
ED50 (Gastric Acid Output; [3]): ~15 µmol/kg

Nc1n[s+]([O-])nc1NCCCOc1cccc(CN2CCCC2)c1 (stereo not shown) [145 a]
ED50 (Gastric Acid Output; [3]): 0.056 µmol/kg

CNC1=NS(=O)(=O)N=C1NCCCOc1cccc(CN2CCCCCC2)c1 [144 c]
ED50 (Gastric Acid Output; [3]): 0.14 µmol/kg

Nc1n[s+]([O-])nc1NCCCOc1cccc(CN2CCCCCC2)c1 (stereo not shown) [145 c]
ED50 (Gastric Acid Output; [3]): 0.025 µmol/kg

CC1CCN(Cc2cccc(OCCCNc3n[s+]([O-])nc3N)c2)CC1 (stereo not shown) [145 b]
ED50 (Gastric Acid Output; [3]): ~0.06 µmol/kg

CNCc1ccc(CSCCNC2=NS(=O)(=O)N=C2NC)o1 [20 A]
ED50 (Gastric Acid Output; [3]): 1.15 µmol/kg

NC1=NS(=O)(=O)N=C1NCCCOc1cccc(CN2CCCC2)c1 [146 a]
ED50 (Gastric Acid Output; [3]): 0.023 µmol/kg

CNC1=NS(=O)(=O)N=C1NCCCOc1cccc(CN2CCOCC2)c1 [144 d]
ED50 (Gastric Acid Output; [3]): 0.91 µmol/kg

CNC(=S)NCCCCc1cnc[nH]1 [Burimamide]
inhibition of gastric secretion (gastric secretion; animals and man): inhibits gastric secretion in animals and man
oral absorption [1]: poor

CN(C)Cc1ccc(CSCCNC2=NS(=O)(=O)N=C2N(C)C)o1 [Example 28, 3-{2-[(5-Dimethylaminomethyl-2-furyl)methylthio]ethylamino}-4-dimethylamino-1,2,5-thiadiazole 1,1-dioxide]
ED50 (Gastric Acid Output; [3]): 1.39 µmol/kg

CCCCCCCCCCCCNC1=NS(=O)(=O)N=C1NCCSCc1ccc(CN(C)C)o1 [Example 106, 3-{2-[(5-Dimethylaminomethyl-2-furyl)methylthio]ethylamino}-4-dodecylamino-1,2,5-thiadiazole 1,1-dioxide]
ED50 (Gastric Acid Output; [3]): ~80 µmol/kg

CNC1=NS(=O)(=O)N=C1NCCSCc1ccc(CN(C)C)o1 [11 B]
ED50 (Gastric Acid Output; ip, i.p. administration, two hour gastric acid output, 95% confidence limits in parenthesis, read-out: ED50): 0.69 µmol/kg

CN(C)Cc1ccc(CSCCNC2=NS(=O)(=O)N=C2NCCSCc2ccc(CN(C)C)o2)o1 [11 C]
ED50 (Gastric Acid Output; [3]): 0.2 µmol/kg

NC1=NS(=O)(=O)N=C1NCCCOc1cccc(CN2CCOCC2)c1 [146 d]
ED50 (Gastric Acid Output; [3]): 0.28 µmol/kg

CNC(=NC#N)NCCSCc1nc[nH]c1C [Cimetidine]
ED50 (Gastric Acid Output): ~9 µmol/kg
H2 -antagonist potency/effectiveness relative to another antagonist (H2 -receptor): as effective an H2 -antagonist as metiamide
toxicity (agranulocytosis) [2]: without producing agranulocytosis
therapeutic effect in peptic ulcer disease (peptic ulcer disease): effective therapeutic agent in the treatment of peptic ulcer disease

CNC1=NS(=O)(=O)N=C1NCCCOc1cccc(CN2CCC(C)CC2)c1 [144 b]
ED50 (Gastric Acid Output; [3]): 0.025 µmol/kg

CNC1=NS(=O)(=O)N=C1NCCCOc1cccc(CN2CCCC2)c1 [144 a]
ED50 (Gastric Acid Output; [3]): 0.095 µmol/kg

CNC(=S)NCCSCc1nc[nH]c1C [Metiamide]
oral activity (gastric secretion; in man, oral): orally active in man
H2 -antagonist potency/effectiveness relative to another antagonist (H2 -receptor): more potent than burimamide
toxicity (agranulocytosis) [2]: toxicity (agranulocytosis)

Nc1n[s+]([O-])nc1NCCCOc1cccc(CN2CCCCCCC2)c1 (stereo not shown) [145 d]
ED50 (Gastric Acid Output; [3]): 0.05 µmol/kg
